Data: the supplement of paper PMC10307832

Tests used:
Assay in all cases: relative viability (nuclei count vs DMSO), 5 days (fraction); higher = more cells survive
[1] = compound: CN(c1ncccc1CNc1nc(Nc2ccc3c(c2)CC(=O)N3)ncc1C(F)(F)F)S(C)(=O)=O
Outline: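 Following overnight incubation at 37 °C, lung cancer cell lines in 1536-well plates were pinned with five library-drug doses (not always all listed) in √10 steps on vehicle-anchored plates. The cells then spent 5 days without medium change before a combined fix, permeabilisation and Hoechst stain, 4× imaging and MetaXpress nuclear counts. Viability is the treated-to-vehicle ratio of nuclei, taken as the median across plates. Only plates with control CV below 25% and at least one doubling passed.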

[2] = compound: CN(c1ncccc1CNc1nc(Nc2ccc3c(c2)CC(=O)N3)ncc1C(F)(F)F)S(C)(=O)=O + CC(=O)Nc1cccc(-n2c(=O)n(C3CC3)c(=O)c3c(Nc4ccc(I)cc4F)n(C)c(=O)c(C)c32)c1 [Trametinib] (partner 0.02 µM)
Outline: (§1)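 One day after seeding in 1536-well plates, lung cancer cell lines were dosed by pin tool. Dosing was either single-drug or a fixed anchor-drug dose plus five library-drug doses (not always all listed) in √10 steps. After 5 days, nuclei were stained in one fix-and-stain step and counted on 4× images, and relative viability is the nuclei count of treated wells over that of vehicle wells, given as the median of duplicate plates.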

[3] = compound: CN(c1ncccc1CNc1nc(Nc2ccc3c(c2)CC(=O)N3)ncc1C(F)(F)F)S(C)(=O)=O + N=C(N)NC(=N)NCCc1ccccc1 [Phenformin] (partner 250 µM)
Outline: as §1

[4] = compound: CN(c1ncccc1CNc1nc(Nc2ccc3c(c2)CC(=O)N3)ncc1C(F)(F)F)S(C)(=O)=O + O=C(c1cc(Cc2n[nH]c(=O)c3ccccc23)ccc1F)N1CCN(C(=O)C2CC2)CC1 [Olaparib] (partner 8 µM)
Outline: as §1

Cell Line	relative viability ([1]; 0.01 µM)	relative viability ([1]; 0.03162 µM)	relative viability ([1]; 0.1 µM)	relative viability ([1]; 0.3162 µM)	relative viability ([1]; 1 µM)	relative viability ([2]; first compound 0.01 µM)	relative viability ([2]; first compound 0.03162 µM)	relative viability ([2]; first compound 0.1 µM)	relative viability ([2]; first compound 0.3162 µM)	relative viability ([2]; first compound 1 µM)	relative viability ([3]; first compound 0.01 µM)	relative viability ([3]; first compound 0.03162 µM)	relative viability ([3]; first compound 0.1 µM)	relative viability ([3]; first compound 0.3162 µM)	relative viability ([3]; first compound 1 µM)	relative viability ([4]; first compound 0.01 µM)	relative viability ([4]; first compound 0.03162 µM)	relative viability ([4]; first compound 0.1 µM)	relative viability ([4]; first compound 0.3162 µM)	relative viability ([4]; first compound 1 µM)
HCC-44	0.956	0.941	0.917	1	0.984	1.02	1.05	0.959	1.09	1.12	0.193	0.171	0.297	0.239	0.316	0.959	0.978	0.917	0.875	0.904
NCI-H460	1	1.1	0.979	1	1.02	0.108	0.139	0.2	0.185	0.129	0.599	0.75	0.499	0.484	0.495	0.443	0.573	0.464	0.464	0.396
SK-LU-1	1.04	1.15	0.993	1.02	0.908	0.479	0.556	0.489	0.449	0.45	0.579	0.597	0.453	0.472	0.371	0.411	0.433	0.38	0.408	0.445
SW 900	1.03	0.961	0.791	0.867	0.753	0.846	0.726	0.761	0.757	0.739	0.745	0.735	0.602	0.515	0.581	0.867	1.09	1.01	0.722	0.718
NCI-H322M	1	1.03	0.917	1.12	1.12	0.432	0.518	0.522	0.479	0.51	0.88	0.828	0.827	0.89	0.875	0.741	0.774	0.739	0.878	0.832
EKVX	0.971	1.08	0.945	0.883	0.88	0.355	0.374	0.244	0.319	0.262	0.251	0.236	0.24	0.231	0.24	0.833	0.796	0.798	0.772	0.676
NCI-H1734	0.985	1.04	0.947	1.02	0.953	0.602	0.661	0.663	0.719	0.539	0.395	0.395	0.375	0.4	0.415	0.586	0.677	0.614	0.594	0.596
NCI-H522	0.916	0.918	0.996	1	1.02	0.73	0.813	0.698	0.812	0.705	0.664	0.645	0.629	0.819	0.696	0.55	0.594	0.575	0.693	0.763
NCI-H520	1.04	1.2	1.03	1.17	1.18	0.714	0.666	0.646	0.7	0.705	0.601	0.777	0.57	0.678	0.552	0.325	0.318	0.35	0.394	0.423
EPLC-272H	0.948	0.955	1.01	1.18	0.875	0.288	0.294	0.247	0.319	0.277	0.307	0.309	0.339	0.327	0.345	0.699	0.544	0.821	0.871	0.506
UMC-11	0.961	0.966	0.993	0.963	0.861	0.762	0.761	0.794	0.72	0.539	0.333	0.366	0.334	0.314	0.262	0.413	0.545	0.364	0.439	0.363
NCI-H1792	0.925	0.983	0.888	0.975	0.992	0.407	0.632	0.433	0.594	0.42	0.258	0.297		0.281	0.489	0.414	0.386	0.691	0.495	0.386
NCI-H1993	0.855	0.99	0.855	0.925	0.821	0.481	0.547	0.669	0.409	0.585	0.511	0.543	0.448	0.468	0.452	1.13	0.977	1	1.1	0.92
NCI-H596	0.977	0.917	1.02	0.886	0.94	0.932	0.779	0.559	0.781	0.728	0.807	0.745	0.657	0.611	0.763	0.634	0.655	0.664	0.674	0.723
NCI-H1793	0.877	1.07	0.928	0.857	0.786	0.473	0.4	0.419	0.519	0.567	0.398	0.384	0.403	0.247	0.197	0.88	0.685	0.777	0.948	0.769
NCI-H1395	0.94	0.977	0.812	1.01	0.988	0.979	1.07	1.06	1.14	1.02	0.455	0.463	0.459	0.454	0.417	0.454	0.484	0.492	0.457	0.471
